# Test results published in patent publication US5770083A, “Separation of polar compounds by affinity countercurrent chromatography” (The United States of America as represented by the …, priority 1995, dated 1998).
# Read-outs that look alike come from different tables or passages of the source.
# Assays:
# [1] = Partition coefficient (K) in two-phase solvent systems, test tube procedure; type: physicochemical
# Method: Each solvent system was prepared by equilibrating the solvent mixture, excluding the ligand, in a separatory funnel at room temperature. After two clear layers were formed, the two phases were separated. Then, a desired amount of the ligand was added to the organic phase which was then used as the stationary phase. The aqueous phase was used as the mobile phase.
# Partition coefficients were measured using the standard test tube procedure as follows: The two-phase solvent system was prepared as described above. An aliquot of 2 mL of each phase, a total of 4 mL, was delivered in a test tube (13 mm ID×100 mm length) where a desired amount of the ligand and 1-2 mg of sample were added. Then, the test tube was stoppered and the contents were mixed until the resolved sample was completely equilibrated between two phases. Using a vortex mixer, it required 10 successive applications at a few second intervals after the sample was dissolved in the solvent. The tube was stand still until clear two layers were formed. If necessary, the tubes were centrifuged for 2-3 min at 1000×g to accelerate the phase separation. An aliquot of each phase, usually 100 μl, was separately diluted with 2 mL of a suitable diluent, usually methanol, and the absorbance determined with a spectrophotometer, (Zeiss, Hanover, Md., USA) at a desired wavelength. The partition coefficient for each component was obtained by the absorbance of the upper phase divided by that of the lower phase. […]
# [2] = n-butanol/water two-phase solvent systems, no ligand; stated as background; cited from earlier work
# [3] = methyl t-butyl ether / 0.1 M KH2PO4 (1:1), ligand DEHPA 10%, upper/lower phase
compound,measurement,setting,value
"N[C@@H](Cc1ccc(O)c(O)c1)C(=O)O (racemic) [DOPA, 3,4-dihydroxyphenylalanine]",Partition Coefficient (K),[1],0.01
same,K value (in words),"[1]; Dopa in zwitterionic form, pH-zone-refining run, Example 5",extremely low K value
"CCCCC(CC)COP(=O)(O)OCC(CC)CCCC (stereo not shown) [DEHPA, di-(2-ethylhexyl)phosphoric acid]",K value of the ligand,"[1]; ligand almost unilaterally distributed into the organic phase, MBE/aqueous systems",> 100
"CNC[C@H](O)c1ccc(O)c(O)c1 [Epinephrine, epinephrine]",partition (in words),[2],almost exclusively into the aqueous phase
same,Partition Coefficient (K),"[1]; methyl t-butyl ether / 0.1 M NH4OAc and 0.5 M HCl (1:1), ligand DEHPA 1.5%, upper/lower phase",0.4
same,Partition Coefficient,[1]; solvent system I: nButanol/H2O,0.24
same,Partition Coefficient,[1]; solvent system II: nButanol/0.1M NH4OAc,0.13
same,Partition Coefficient,[1]; solvent system III: MBE/H2O,0.06
same,Partition Coefficient,[1]; solvent system IV: MBE/0.1M NH4OAc,0.16
same,Partition Coefficient,[1]; solvent system V: MBE/DEHPA/0.1M NH4OAc (9:1:10),5.83
same,Partition Coefficient,[1]; solvent system VI: MBE/DEHPA/0.05M HCl (9:1:10),0.01
same,Partition Coefficient,[1]; solvent system VII: MBE/DEHPA/0.1M NH4OAc & 0.05M HCl (9:1:10),1.42
"COc1cc(C(O)CN)ccc1O (stereo not shown) [Normetanephrine, normetanephrine]",Partition Coefficient (K),[1],0.5
"NCCc1ccc(O)cc1 [Tyramine, tyramine]",Partition Coefficient (K),[1],1.7
Ala--Tyr,Partition Coefficient (K),[1]; [3],0.5
Gly--Tyr,Partition Coefficient (K),[1]; [3],0.1
Leu--Tyr,Partition Coefficient (K),[1]; [3],10
Tyr--Ala,Partition Coefficient (K),[1]; [3],0.8
Tyr--Gly,Partition Coefficient (K),[1]; [3],0.2
Tyr--Leu,Partition Coefficient (K),[1]; [3],18
Tyr--Val,Partition Coefficient (K),[1]; [3],4.9
Val--Tyr,Partition Coefficient (K),[1]; [3],2.8
